According to patent US11981944B2, “Immunogenic arginase peptides” (IO Biotech ApS, priority 2016, dated 2024):

How the values were obtained:
Format in all cases: cell-based, human
[1] = tested on: PBMCs from healthy donors or cancer patients; test: IFNγ ELISPOT on PBMCs after one week peptide and IL-2 stimulation (Example 2); settings: selected PBMCs from cancer patients and healthy donors; one week stimulation with IL-2; FIG. 10B, 10C
Experimental: PBMCs from healthy donors or cancer patients were stimulated with 80 μg of arginase-derived peptides and 120 U/ml IL-2 (Peprotech, London, UK, cat. 200-02) for a week. 4-6×10^5 PBMCs were then placed in the bottom of ELISPOT plate (nitrocellulose bottomed 96-well plates by MultiScreen MAIP […]; Millipore, cat. MSIPN4W50) pre-coated with IFN-y capture Ab (Mabtech, cat. 3420-3-1000) and 1-10 μg of arginase derived peptides were added. PBMCs from each patient and donors were set up in duplicates or triplicates for peptide and control stimulations. Cells were incubated in ELISPOT plates in the presence of an antigen for 14-16 hours after which they are washed off and secondary biotinylated Ab (Mabtech, cat. 3420-6-1000) was added. After 2 h incubation unbound secondary antibody was washed off and streptavidin conjugated alkaline phosphatase (AP) (Mabtech, cat. 3310-10) was added for 1 h. Next, unbound conjugated enzyme is washed off and the assay is developed by adding BCIP/NBT substrate (Mabtech, cat. 3650-10). Developed ELISPOT plates were analysed on CTL ImmunoSpot S6 Ultimate-V analyzer using Immunospot software v5.1. Responses were calculated as the difference between average numbers of spots in wells stimulated with Arginase-1 peptides and control wells. We divided the entire arginase-1 protein sequence into overlapping 20-amino-acid-long peptides, generating a library of 31 peptides covering the whole sequence (SEQ ID NOs 18-48)). Each peptide in the library overlapped with the first 10 amino acids of the following peptide. Using this arginase peptide library and the IFNγ ELISPOT assay, we next screened PBMCs from melanoma patients and healthy donors for spontaneous responses (FIGS. 9A and 9B). The PBMCs were stimulated for one week with a pool of 3-4 adjacent 20-mer arginase library peptides and low-dose IL-2 (120 U/mL). They were then set up for an IFNγ ELISPOT assay to screen for responses against each 20-mer peptide separately. […] Among these overlapping peptides, […]-200), and Arg(191-210) spanned a 50-amino-acid-long region that was deemed a hot-spot region since nearly all patients harbored a response against one or more of these peptides (FIG. 9A). The selected eight peptides were further used to screen for spontaneous immune responses against arginase-1 in PBMCs from eight healthy donors using IFNγ ELISPOT. […] Since we most frequently observed responses against arginase-1 peptides from the hot-spot region, we next analyzed whether longer peptides covering the same sequence could be used instead of four 20-mers. […] We then divided the arginase-1 hot-spot region into two 30-mer peptides that overlapped by 10 amino acids (peptides labelled by reference to start and end position): […]-190) and […]-210). These 30-mer peptides were used to check for responses in selected PBMCs from cancer patients and healthy donors, which had previously shown responses against the 20-mer hot-spot peptides. The PBMCs were stimulated for one week with either […]-190) or […]-210) in the presence of IL-2, and were then used in IFNγ ELISPOT.

[2] = tested on: PBMCs from two healthy donors and one cancer patient; test: Intracellular staining for IFNγ and TNFα release in PBMCs
Experimental: Flow cytometry analysis was performed on a FACSCanto™ II (BD Biosciences, San Jose CA, USA). Intracellular staining of cell cultures was performed after the cells were stimulated with 20-mere peptides for 5 hours or 30-mere peptides for 8h (BD GolgiPlug™ cat. 555029, was added after the first hour). The cells were then stained for surface markers, then washed and permeabilized by using Fixation/Permeabilization and Permeabilization Buffer (eBioscience, cat. 00-5123-43), according to manufacturer's instructions. Antibodies used: IFNγ-APC (cat. 341117), TNFα-BV421 (cat. 562783), CD4-FITC (cat. 347413), CD8-PerCP (cat. 345774) (all from BD Biosciences). Dead cells were stained using FVS510 (564406, BD Biosciences) according to manufacturer's instructions.
To investigate which types of T cells reacted to the peptide epitopes in the hot-spot region, we performed intracellular staining for IFNγ and TNFα release in PBMCs from two healthy donors and one cancer patient, which had shown responses against the Arg(161-190) peptide in IFNγ ELISPOT.

[3] = tested on: PBMCs from cancer patients; test: IFNγ ELISPOT with HLA Class I / Class II blocking; settings: anti-Class I W6/32 or anti-Class II Tü39; FIG. 11B
Experimental: PBMCs from healthy donors or cancer patients were stimulated with 80 μg of arginase-derived peptides and 120 U/ml IL-2 (Peprotech, London, UK, cat. 200-02) for a week. 4-6×10^5 PBMCs were then placed in the bottom of ELISPOT plate (nitrocellulose bottomed 96-well plates by MultiScreen MAIP N45; Millipore, cat. MSIPN4W50) pre-coated with IFN-y capture Ab (Mabtech, cat. 3420-3-1000) and 1-10 μg of arginase derived peptides were added. PBMCs from each patient and donors were set up in duplicates or triplicates for peptide and control stimulations. Cells were incubated in ELISPOT plates in the presence of an antigen for 14-16 hours after which they are washed off and secondary biotinylated Ab (Mabtech, cat. 3420-6-1000) was added. After 2 h incubation unbound secondary antibody was washed off and streptavidin conjugated alkaline phosphatase (AP) (Mabtech, cat. 3310-10) was added for 1 h. Next, unbound conjugated enzyme is washed off and the assay is developed by adding BCIP/NBT substrate (Mabtech, cat. 3650-10). Developed ELISPOT plates were analysed on CTL ImmunoSpot S6 Ultimate-V analyzer using Immunospot software v5.1. Responses were calculated as the difference between average numbers of spots in wells stimulated with Arginase-1 peptides and control wells. […]

[4] = tested on: arginase-specific CD4+ T-cell culture; test: Recognition by arginase-specific CD4+ T-cell culture (ArgShort-stimulated)
Experimental: PBMCs from healthy donors or cancer patients were stimulated with 80 μg of arginase-derived peptides and 120 U/ml IL-2 (Peprotech, London, UK, cat. 200-02) for a week. 4-6×10^5 PBMCs were then placed in the bottom of ELISPOT plate (nitrocellulose bottomed 96-well plates by MultiScreen MAIP N45; Millipore, cat. MSIPN4W50) pre-coated with IFN-y capture Ab (Mabtech, cat. 3420-3-1000) and 1-10 μg of arginase derived peptides were added. PBMCs from each patient and donors were set up in duplicates or triplicates for peptide and control stimulations. Cells were incubated in ELISPOT plates in the presence of an antigen for 14-16 hours after which they are washed off and secondary biotinylated Ab (Mabtech, cat. 3420-6-1000) was added. After 2 h incubation unbound secondary antibody was washed off and streptavidin conjugated alkaline phosphatase (AP) (Mabtech, cat. 3310-10) was added for 1 h. Next, unbound conjugated enzyme is washed off and the assay is developed by adding BCIP/NBT substrate (Mabtech, cat. 3650-10). Developed ELISPOT plates were analysed on CTL ImmunoSpot S6 Ultimate-V analyzer using Immunospot software v5.1. Responses were calculated as the difference between average numbers of spots in wells stimulated with Arginase-1 peptides and control wells.
Arginase-specific T cell culture were established by stimulation of cancer patient PBMC with irradiated ArgShort (SEQ ID NO 9) peptide-loaded autologous DC or PBMCs. The following day IL-7 and IL-12 (PeproTech, London, UK, cat. 200-07-10 and 200-12) were added. Stimulation of the cultures were carried out every 8 days with ArgShort peptide loaded irradiated autologous DC followed by ArgShort peptide-loaded irradiated autologous PBMC. The day after peptide stimulation IL-2 […]. After 5 stimulations arginase-specific T cells were enriched using TNF-α cell enrichment kit (MiltenyiBiotec, cat. 130-091-269).
Flow cytometry analysis was performed on a FACSCanto™ II (BD Biosciences, San Jose CA, USA). […]

For “GFSWVTPCISAKDIVYIGLRDVDPGEHYIL (Peptide fragment of human Arginase 1) [Arg(161-190), 30-mer, positions 161-190 of human Arginase 1]”, the “IFNγ ELISPOT responses against longer hot-spot peptides” value [1] was “high responses”, the “TNFα release from CD4+ T cells” value ([2]; 8-hour incubation with peptide, FIG. 11A) was “detected TNFα release from CD4+ T cells” and the “response from CD8+ T cells” value ([2]; some samples, data not shown) was “minor response”. For the same sequence, the “IFNγ release in response to peptide on blocking HLA Class I or Class II” value [3] was “partially blocked the IFNγ release”, the “TNFα release from CD4+ T cells, intracellular staining” value ([4]; 8 hours of peptide stimulation, FIG. 11C right) was “TNFα release from CD4+ T cells” and the “recognition by T-cell culture specific against the minimal arginase epitope” value ([4]; IFNγ ELISPOT and intracellular staining, FIG. 11C) was “recognized”.
